Laboratory results reported in patent US5102870A, “Treatment and prevention of oral mucositis with growth factors” (Schering AG, priority 1989, dated 1992).

System: mucositis induced by the administration of 5-FU in hamsters
Experiment: 5-fluorouracil plus mechanical irritation induced oral mucositis model, cheek pouch
Assay type: in vivo, Golden Syrian hamsters
Excerpt: An animal model for studying the acute effects of chemotherapy and radiotherapy in the oral cavity was developed by Dr. Stephen T. Sonis at Brigham and Women's Hospital, Boston, Mass. This model was particularly suited for testing the efficacy of growth factors on chemotherapy mucositis. This model utilizes an acute regimen of 5-fluorouracil (5-FU) combined with mechanical irritation to induce mucositis. More specifically, intraperitoneal (i.p.) injections of 5-fluorouracil were combined with superficial mechanical mucosal irritation to result in clinical breakdown of the oral mucosa as characterized by ulcerative mucositis in Golden Syrian hamsters. […] For these reasons, it was believed that this model would be extremely beneficial in evaluating growth factors to treat mucositis.
The following experiment was performed to determine the effects of growth factors, specifically TGF-α, on the prevention and healing of mucositis induced by the administration of 5-FU in hamsters. Example 1:
One hundred young male Golden Syrian hamsters were divided into four groups of 25 animals each. Beginning on day 0, animals received twice daily dosing of their cheek pouch buccal mucosa as follows:
Medication was applied in a volume of 0.2 ml of Orabase per cheek pouch. The right cheek pouch was mechanically irritated by superficial scratching starting at day 0, daily until erythematous changes were noted. For most animals, such changes were noted by day 2 and mechanical irritation discontinued. For the remaining animals, mechanical irritation was stopped at day 3. Beginning on day 0, all of the animals received i.p. injections of 5-FU at a dose of 60 mg/kg body weight, with additional dosing on days 5 and 10. The animals were observed and weighed daily. On days 2, 4, 6, 8, 10, 12, 14, 16, 18 and 20, two animals were randomly sacrificed in each group. Cheek pouches were biopsied. The tissue was then placed in 10% formalin for histologic study according to established methods, and subsequently stained with hematoxylin and eosin. The following parameters were evaluated and scored: inflammatory infiltrate, degree of epithelial atropy, extent of epithelial breakdown/ulceration, mitotic activity at would margins and evidence of superficial/secondary infection. Two randomly selected hamsters from each group had their cheek pouches photographed daily. The animals were weighed and observed daily. […] Mucositis was scored using the following established scale:
Grade 0--no evidence of ulcers or mucositis
Grade 1--erythema but no ulceration
Grade 2--1 or 2 small (<2 mm), single ulcers
Grade 3--1 large or 3 or more small ulcers
Grade 4--multiple large ulcers and/or involvement of 50% of pouch mucosal surface area
The animals were evaluated both for the ability of TGF-α to delay the onset and reduce the severity of mucositis. The data presented here are based upon clinical observations. Histologic evaluation of biopsied cheek pouches corroborated these observations.

Substance: transforming growth factor-alpha [TGF-α]
- averaged mucositis grades (severity of mucositis) (Group III, TGF-α in Orabase 2 μg/dose (low dose), twice daily, compared among groups): best results
- development of grade 3/4 mucositis (Group III, TGF-α in Orabase 2 μg/dose, twice daily): did not develop
- day of development of grade 3/4 mucositis (Group IV, TGF-α in Orabase 20 μg/dose, twice daily): 9 days
- onset of mucositis (development of grade 3 and 4 mucositis) (TGF-α groups vs Group I (none) and Group II (Orabase only)): delayed the onset of mucositis
- averaged mucositis grades (severity of mucositis) (groups receiving TGF-α in Orabase (2 or 20 μg/dose), topical to cheek pouch twice daily, 18 day period, vs control groups): lower overall scores
